Reference: patent publication US9675070B2 (BAYER CROPSCIENCE AG, priority 2013, dated 2017)

Columns and labels:
[1] = test system: engorged adult female cattle ticks (Boophilus microplus); assay: Boophilus microplus injection test (BOOPMI Inj); type: in vivo; conditions: application rate 20 μg/animal; injection into abdomen; assessed after 7 days
Method: Boophilus microplus Injection Test (BOOPMI Inj)
(§1) Solvent: dimethyl sulphoxide
To produce a suitable preparation of active compound, 10 mg of active compound are mixed with 0.5 ml of solvent, and the concentrate is diluted with solvent to the desired concentration.
1 μl of the active compound solution is injected into the abdomen of 5 engorged adult female cattle ticks (Boophilus microplus). The animals are transferred into dishes and kept in a climate-controlled room.
(§2) The activity is assessed after 7 days by laying of fertile eggs. Eggs whose fertility is not visible from the outside are stored in a climate-controlled cabinet until the larvae hatch after about 42 days. An efficacy of 100% means that none of the ticks has laid any fertile eggs; 0% means that all eggs are fertile.

[2] = test system: adult cat fleas (Ctenocephalides felis); assay: Ctenocephalides felis oral test (CTECFE); type: in vivo; conditions: application rate 100 ppm in citrated cattle blood; after 2 days
Method: Ctenocephalides felis-Oral Test ([…]) Solvent: dimethyl sulphoxide To produce a suitable preparation of active compound, 10 mg of active compound are mixed with 0.5 ml of dimethyl sulphoxide. Dilution with citrated cattle blood gives the desired concentration. About 20 unfed adult cat fleas (Ctenocephalides felis) are placed into a chamber which is closed at the top and bottom with gauze. A metal cylinder whose bottom end is closed with a parafilm is placed onto the chamber. The cylinder contains the blood/active ingredient preparation, which can be imbibed by the fleas through the parafilm membrane. After 2 days, the kill in % is determined. 100% means that all of the fleas have been killed; 0% means that none of the fleas have been killed.

[3] = test system: L1 larvae of the Australian sheep blowfly (Lucilia cuprina); assay: Lucilia cuprina test (LUCICU); type: in vivo; conditions: application rate 100 ppm; minced horsemeat; after 2 days
Method: Lucilia cuprina Test (LUCICU) Solvent: dimethyl sulphoxide To produce a suitable preparation of active compound, 10 mg of active compound are mixed with 0.5 ml of dimethyl sulphoxide, and the concentrate is diluted with water to the desired concentration. About 20 L1 larvae of the Australian sheep blowfly (Lucilia cuprina) are transferred into a test vessel containing minced horsemeat and the active compound preparation of the desired concentration. After 2 days, the kill in % is determined. 100% means that all of the larvae have been killed; 0% means that none of the larvae have been killed.

[4] = test system: southern root-knot nematode (Meloidogyne incognita); assay: Meloidogyne incognita test (MELGIN); type: in vivo; conditions: application rate 20 ppm; lettuce; after 14 days
Method: Meloidogyne incognita Test (MELGIN) Solvent: 125.0 parts by weight of acetone To prepare a suitable active compound preparation, 1 part by weight of active compound is mixed with the stated amount of solvent and the concentrate is diluted with water to the desired concentration. Vessels are filled with sand, active compound solution, an egg/larvae suspension of the southern root-knot nematode (Meloidogyne incognita) and lettuce seeds. The lettuce seeds germinate and the plants develop. On the roots, galls are formed. After 14 days, the nematicidal efficacy in % is determined by the formation of galls. 100% means that no galls have been found; 0% means that the number of galls on the treated plants corresponds to the untreated control.

[5] = test system: larvae of the mustard beetle (Phaedon cochleariae); assay: Phaedon cochleariae spray test (PHAECO); type: in vivo; conditions: application rate 100 g/ha; Chinese cabbage leaf discs; after 7 days
Method: Phaedon cochleariae—Spray Test (PHAECO)
(§3) Solvents: 78.0 parts by weight of acetone
(§4) • 1.5 parts by weight of dimethylformamide Emulsifier: alkylaryl polyglycol ether
(§5) To produce a suitable preparation of active compound, 1 part by weight of active compound is dissolved using the stated parts by weight of solvent and made up with water comprising an emulsifier concentration of 1000 ppm until the desired concentration is reached. To produce further test concentrations, the preparation is diluted with emulsifier-containing water.
After 7 days, the efficacy in % is determined. 100% means that all of the beetle larvae have been killed; 0% means that none of the beetle larvae have been killed.

[6] = test system: caterpillars of the armyworm (Spodoptera frugiperda); assay: Spodoptera frugiperda spray test (SPODFR); type: in vivo; conditions: application rate 100 g/ha; maize leaf discs; after 7 days
Method: Spodoptera frugiperda—Spray Test (SPODFR)
as §3, §4, §5
Leaf discs of maize (Zea mays) are sprayed with an active compound preparation of the desired concentration and, after drying, populated with caterpillars of the armyworm (Spodoptera frugiperda).
After 7 days, the efficacy in % is determined. 100% means that all of the caterpillars have been killed; 0% means that none of the caterpillars have been killed.

[7] = test system: greenhouse red spider mite (Tetranychus urticae), OP-resistant; assay: Tetranychus urticae spray test, OP-resistant (TETRUR); type: in vivo; conditions: application rate 100 g/ha; bean leaf discs; after 6 days
Method: Tetranychus urticae—Spray Test, OP-Resistant (TETRUR)
as §3, §4, §5
Discs of bean leaves (Phaseolus vulgaris) which are infested by all stages of the greenhouse red spider mite (Tetranychus urticae) are sprayed with an active compound preparation of the desired concentration.
After 6 days, the efficacy in % is determined. 100% means that all of the spider mites have been killed; 0% means that none of the spider mites have been killed.

[8] = test system: green peach aphid (Myzus persicae); assay: Myzus persicae spray test (MYZUPE); type: in vivo; conditions: application rate 100 g/ha; Chinese cabbage leaf discs; after 6 days
Method: Myzus persicae—spray test (MYZUPE)
Solvents: 78 parts by weight of acetone
as §4, §5
Discs of Chinese cabbage leaves (Brassica pekinensis) infested by all stages of the green peach aphid (Myzus persicae) are sprayed with an active compound preparation of the desired concentration.
After 6 days, the efficacy in % is determined. 100% here means that all of the aphids have been killed; 0% means that no aphids have been killed.

[9] = log P determination by HPLC on reversed-phase column (C18), EEC Directive 79/831 Annex V.A8; type: physicochemical; conditions: method a): Agilent 1100 LC, Zorbax Eclipse Plus C18, acetonitrile/water with formic acid, gradient 10-95% in 4.25 min, 55° C.
Method: Agilent 1100 LC system; 50*4.6 Zorbax Eclipse Plus C18 1.8 micron; mobile phase A: acetonitrile (0.1% formic acid); mobile phase B: water (0.09% formic acid); linear gradient from 10% acetonitrile to 95% acetonitrile in 4.25 min, then 95% acetonitrile for a further 1.25 min; oven temperature 55° C.; flow rate: 2.0 ml/min. Mass detection is carried out via an Agilend MSD system.
^a)Unless indicated otherwise, the following method was used to determine the log P values and masses: The determination of the given log P values was carried out in accordance with EEC Directive 79/831 Annex V.A8 by HPLC (High Performance Liquid Chromatography) on a reversed-phase column (C18). Agilent 1100 LC system; 50*4.6 Zorbax Eclipse Plus C18 1.8 micron; mobile phase A: acetonitrile (0.1% formic acid); mobile phase B: water (0.09% formic acid); linear gradient from 10% acetonitrile to 95% acetonitrile in 4.25 min, then 95% acetonitrile for a further 1.25 min; oven temperature 55° C.; flow rate: 2.0 ml/min. Mass detection is carried out via an Agilend MSD system. ^b)Note for the alternative method for determining log P values and masses: The stated log P values were determined in accordance with EEC Directive 79/831 Annex V.A8 by HPLC (High Performance Liquid Chromatography) using a reversed-phase column (C18). Waters ACQUITY UPLC-MS system; 2.1*50 mm Zorbax Eclipse Plus C18 1.8 μm 600 bar; injection volume: 0.5 ul about 1000 ppm; mobile phase A: acetonitrile (0.1% formic acid); mobile phase B: water (0.085% formic acid); linear gradient from 10% acetonitrile to 95% acetonitrile in 1.5 min, then 95% acetonitrile for a further 0.5 min; oven temperature 60° C.; flow rate: 1.0 ml/min. Mass detection is carried out via a Waters SQD system.

[10] = test system: Tick nymphs (Amblyomma hebraeum); assay: Amblyomma hebaraeum test (AMBYHE), tick nymph immersion; type: in vivo; conditions: application rate 100 ppm; immersion one minute; after 42 days
Method: Amblyomma hebaraeum Test (AMBYHE) Solvent: dimethyl sulphoxide To produce a suitable preparation of active compound, 10 mg of active compound are mixed with 0.5 ml of dimethyl sulphoxide, and the concentrate is diluted with water to the desired concentration. Tick nymphs (Amblyomma hebraeum) are placed into perforated plastic beakers and immersed in the desired concentration for one minute. The ticks are transferred on filter paper into a Petri dish and stored in a climate-controlled cabinet. After 42 days, the kill in % is determined. 100% means that all of the ticks have been killed; 0% means that none of the ticks have been killed.

[11] = test system: cattle ticks (Boophilus microplus) Parkhurst strain, SP-resistant; assay: Boophilus microplus dip test (BOOPMI Dip); type: in vivo; conditions: application rate 100 ppm, assessed after 7 days
Method: Boophilus microplus—Dip Test (BOOPMI Dip)
Test animals: cattle ticks (Boophilus microplus) Parkhurst strain, SP-resistant
as §1
10 mg of active compound are dissolved in 0.5 ml of dimethyl sulphoxide. To prepare a suitable formulation, the active compound solution is diluted with water to the concentration desired in each case.
This active compound preparation is pipetted into tubes. 8-10 adult engorged female cattle ticks (Boophilus microplus) are transferred into a further tube with holes. The tube is immersed into the active compound formulation, and all ticks are completely wetted. After the liquid has run out, the ticks are transferred on filter discs into plastic dishes and stored in a climate-controlled room.
as §2

[12] = test system: adult houseflies (Musca domestica); assay: Musca domestica test (MUSCDO); type: in vivo; conditions: application rate 100 ppm; after 2 days
Method: Musca domestica Test (MUSCDO) Solvents: dimethyl sulphoxide To produce a suitable preparation of active compound, 10 mg of active compound are mixed with 0.5 ml of dimethyl sulphoxide, and the concentrate is diluted with water to the desired concentration. Vessels containing a sponge treated with sugar solution and the active compound preparation of the desired concentration are populated with 10 adult houseflies (Musca domestica). After 2 days, the kill in % is determined. 100% means that all of the flies have been killed; 0% means that none of the flies have been killed.

Row | SMILES | efficacy (no laying of fertile eggs) [1] [%] | kill in % [2] [%] | kill in % [3] [%] | nematicidal efficacy in % (formation of galls) [4] [%] | efficacy in % [5] [%] | efficacy in % [6] [%] | efficacy in % [7] [%] | efficacy in % [8] [%] | chromatographic logP [9] | kill in % [10] [%] | efficacy (no laying of fertile eggs) [11] [%] | kill in % [12] [%]
1 | Cn1nc(C(F)(F)C(F)(F)F)c(C(F)(F)F)c1-n1cc(-c2ccc(F)c(CNC(=O)Cc3cccs3)c2)cn1 [Ic-7] | 100 | 90 | 100 | 90 | 100 | 83 | 100 | – | – | – | – | –
2 | Cn1nc(C(F)(F)C(F)(F)F)c(C(F)(F)F)c1-n1cc(-c2ccc(F)c(CNC(=O)c3ccsc3)c2)cn1 [Ic-23] | 100 | – | 95 | 90 | 100 | – | – | – | – | – | – | –
3 | CCC(=O)NCc1cncc(-c2cnn(-c3c(C(F)(F)F)c(C(F)(F)C(F)(F)F)nn3C)c2)c1 [Ic-26] | – | – | – | – | 100 | 83 | 90 | 100 | – | – | – | –
4 | CCC(=O)NCc1cccc(-c2cnn(-c3c(C(F)(F)F)c(C(F)(F)C(F)(F)F)nn3C)c2)c1 [Ic-1, N-{3-[2′-methyl-5′-(pentafluoroethyl)-4′-(trifluoromethyl)-2′H-1,3′-bipyrazol-4-yl]benzyl}propanamide] | 100 | 100 | 100 | 90 | 100 | 100 | 90 | – | 3.59 | 100 | 100 | 100
5 | CCC(=O)NC(C)c1cccc(-c2cnn(-c3c(C(F)(F)F)c(C(F)(F)C(F)(F)F)nn3C)c2)c1 (stereo not shown) [Ic-33] | – | – | – | – | 100 | – | 100 | 90 | – | – | – | –
6 | CC(F)C(=O)NCc1cc(-c2cnn(-c3c(C(F)(F)F)c(C(F)(F)C(F)(F)F)nn3C)c2)ccc1F (racemic) [Ic-22] | – | – | – | – | 100 | 83 | 100 | 90 | – | – | – | –
7 | CC(=O)NCc1cncc(-c2cnn(-c3c(C(F)(F)F)c(C(F)(F)C(F)(F)F)nn3C)c2)c1 [Ic-8] | – | – | – | – | 100 | – | 90 | 90 | – | – | – | –
8 | CCC(=O)NCc1cccc(-c2ncn(-c3c(C(F)(F)F)c(C(F)(F)C(F)(F)F)nn3C)n2)c1 [Ie-1] | – | – | – | 90 | – | – | – | – | – | – | – | –
9 | Cn1nc(C(F)(F)C(F)(F)F)c(C(F)(F)F)c1-n1cc(-c2cccc(CNC(=O)OC(C)(C)C)c2)cn1 [Ic-18, tert-butyl {3-[2′-methyl-5′-(pentafluoroethyl)-4′-(trifluoromethyl)-2′H-1,3′-bipyrazol-4-yl]benzyl}carbamate] | 100 | – | – | – | – | – | – | 100 | 4.74 | – | – | –
